Measurements from US8058306B2, “Phenyl pyrrole aminoguanidine derivatives” (Action Pharma A/S, priority 2006, dated 2011).
Values joined by “and” are separate entries in the source; they are usually repeats but may differ in a detail not shown here. Identical values can stand only once. “Also recorded” adds a separate entry of the source. Like-named read-outs stand apart in the source and are kept apart here.

Test: Plasma kinetics in rat following intravenous and oral administration;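 on AUC0-∞: parameter is AUC from zero to infinity in ng·h/mL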
Type: in vivo, Sprague Dawley rats
Procedure: This study determined the intravenous pharmacokinetics and oral bioavailability of compound 1 of the invention (see FIG. 1A, structure no. 1), compound 2 of the invention (see FIG. 1D, structure no. 19) and compound 3 of the invention (see FIG. 1I, structure no. 53) following administration to Sprague Dawley rats at a dose level of 10 mg/kg.
Six groups of 3 male rats received either a single intravenous or single oral administration of compound 1, 2 or 3 of the invention at a dose level of 10 mg/kg. Blood samples were obtained at various times after dosing. Plasma samples were analysed for unchanged test item using a suitable LC-MS/MS method. Pharmacokinetic parameters were estimated from individual plasma concentrations.
Eighteen male rats each received either a single intravenous or a single oral administration of either compound 1, 2 or 3 at a dose level of 10 mg/kg. The formulation was orally administered to each animal by gastric gavage and intravenously administered to each animal via a tail vein. The dose was administered at a dose volume of 5 mL/kg. The formulations were administered to each animal according to the details in the following table:
Blood samples (ca 0.3 mL) were removed from the femoral vein of each animal into tubes containing lithium heparin as anticoagulant.
Blood samples were collected from 3 rats at the following times after dose administration: • 3, 6, 15, 45 min and 1.5, 2.5, 4, 6, 8, 24 h post dose. Oral Administration
Blood samples were collected from 3 rats at the following times after dose administration: • 5, 15, 45 min and 1.5, 2.5, 4, 6, 8, 24 h post dose. Processing of Blood Samples
Pharmacokinetic parameters of compound 1, 2 and 3 were derived by non-compartmental analysis using WinNonLin Pro version 5.0.1 (Pharsight 2005). The following parameters were derived, where appropriate, from the individual plasma concentration versus time profiles:
• F % The absolute oral bioavailability calculated as [AUC0-t (oral)*Dose(iv)/AUC0-t (iv)*Dose (oral)]*100 based on mean values derived after oral and intravenous administration Consideration was given to the estimation of λz and corresponding t1/2 values. Three or more points are required within the terminal phase for λz and t1/2 to be estimated. The following additional variables were tabulated to aid identification of potentially unreliable estimates of t1/2 and AUC:
Pharmacokinetic parameters were reported as geometric mean except Tmax which was reported as the median. Geometric coefficient of variation was calculated as: […]
Actual sampling times were used for all calculations of pharmacokinetic parameters. Plasma concentrations that were below the limit of quantification were taken as zero for the pharmacokinetic analysis.

[1] = intravenous 10 mg/kg, male rats, individual animals, acetate, 10 mg/kg
[2] = male, Sprague Dawley, rat, plasma, iv, 10 mg/kg, single intravenous 10 mg/kg, male rats, individual animals, read-out: Sample Concentration in plasma
[3] = male, Sprague Dawley, rat, plasma, iv, 10 mg/kg, single intravenous 10 mg/kg, male rats, mean of 3, read-out: Mean Concentration in plasma

- bioavailability (Sprague Dawley, rat, plasma, 10 mg/kg oral vs intravenous, male rats, from mean AUC0-t, read-out: Mean absolute oral bioavailability): 34.8%
- Between-animal variability in systemic exposure, coefficient of variation (CV) of AUC0-t (intravenous 10 mg/kg, male rats): less than 20%
- AUC0-∞ [1]: 3755 ng·h/mL and 3394 ng·h/mL
- AUC(0-t) [1]: 3662 ng·h/mL and 3262 ng·h/mL
- C0 [1]: 5834 ng/mL and 2729 ng/mL
- CL [1]: 45.15 mL/min/kg and 49.85 mL/min/kg
- MRT [1]: 5.76 h
- Vss [1]: 15.606 L/kg and 19.225 L/kg
- t1/2 [1]: 4.87 h and 5.44 h
- Systemic clearance (in words) (intravenous 10 mg/kg, rats): moderate
- systemic plasma clearance (CL) as share of hepatic blood flow in rats (intravenous 10 mg/kg, hepatic blood flow 3312 mL/h/kg): approximately 82%
- AUC(0-inf) (male, Sprague Dawley, rat, plasma, iv, 10 mg/kg, intravenous 10 mg/kg, male rats, Arithmetic Mean): 3780 ng·h/mL
- AUC(0-t) (male, Sprague Dawley, rat, plasma, iv, 10 mg/kg, intravenous 10 mg/kg, male rats, Arithmetic Mean, read-out: AUC0-t): 3600 ng·h/mL
- C0 (male, Sprague Dawley, rat, plasma, iv, 10 mg/kg, intravenous 10 mg/kg, male rats, Arithmetic Mean, read-out: C0): 4210 ng/mL
- clearance (male, Sprague Dawley, rat, plasma, iv, 10 mg/kg, intravenous 10 mg/kg, male rats, Arithmetic Mean, read-out: CL (converted)): 45.3 mL/min/kg
- MRT (male, Sprague Dawley, rat, plasma, iv, 10 mg/kg, intravenous 10 mg/kg, male rats, Arithmetic Mean, read-out: MRT): 6.5 h
- Vd (male, Sprague Dawley, rat, plasma, iv, 10 mg/kg, intravenous 10 mg/kg, male rats, Arithmetic Mean, read-out: Vss): 17.6 L/kg
- half-life (male, Sprague Dawley, rat, plasma, iv, 10 mg/kg, intravenous 10 mg/kg, male rats, Arithmetic Mean, read-out: t1/2 (converted)): 5.77 h
- AUC(0-inf) (male, Sprague Dawley, rat, plasma, iv, 10 mg/kg, intravenous 10 mg/kg, male rats, Geometric mean): 3760 ng·h/mL
- AUC(0-t) (male, Sprague Dawley, rat, plasma, iv, 10 mg/kg, intravenous 10 mg/kg, male rats, Geometric mean, read-out: AUC0-t): 3590 ng·h/mL
- C0 (male, Sprague Dawley, rat, plasma, iv, 10 mg/kg, intravenous 10 mg/kg, male rats, Geometric mean, read-out: C0): 4020 ng/mL
- clearance (male, Sprague Dawley, rat, plasma, iv, 10 mg/kg, intravenous 10 mg/kg, male rats, Geometric mean, read-out: CL (systemic plasma clearance) (converted)): 45.1 mL/min/kg
- MRT (male, Sprague Dawley, rat, plasma, iv, 10 mg/kg, intravenous 10 mg/kg, male rats, Geometric mean, read-out: MRT): 6.47 h
- Vd (male, Sprague Dawley, rat, plasma, iv, 10 mg/kg, intravenous 10 mg/kg, male rats, Geometric mean, read-out: Vss (mean apparent volume of distribution)): 17.5 L/kg
- half-life (male, Sprague Dawley, rat, plasma, iv, 10 mg/kg, intravenous 10 mg/kg, male rats, Geometric mean, read-out: t1/2 (mean apparent terminal half-life) (converted)): 5.7 h
- AUC(0-inf) (male, Sprague Dawley, rat, plasma, iv, 10 mg/kg, intravenous 10 mg/kg, male rats, Median): 3760 ng·h/mL
- AUC(0-t) (male, Sprague Dawley, rat, plasma, iv, 10 mg/kg, intravenous 10 mg/kg, male rats, Median, read-out: AUC0-t): 3660 ng·h/mL
- C0 (male, Sprague Dawley, rat, plasma, iv, 10 mg/kg, intravenous 10 mg/kg, male rats, Median, read-out: C0): 4070 ng/mL
- clearance (male, Sprague Dawley, rat, plasma, iv, 10 mg/kg, intravenous 10 mg/kg, male rats, Median, read-out: CL (converted)): 45.1 mL/min/kg
- MRT (male, Sprague Dawley, rat, plasma, iv, 10 mg/kg, intravenous 10 mg/kg, male rats, Median, read-out: MRT): 6.43 h
- Vd (male, Sprague Dawley, rat, plasma, iv, 10 mg/kg, intravenous 10 mg/kg, male rats, Median, read-out: Vss): 17.9 L/kg
- half-life (male, Sprague Dawley, rat, plasma, iv, 10 mg/kg, intravenous 10 mg/kg, male rats, Median, read-out: t1/2 (converted)): 5.44 h
- AUC(0-inf) (male, Sprague Dawley, rat, plasma, iv, 10 mg/kg, intravenous 10 mg/kg, male rats, individual animals): 4180 ng·h/mL
- AUC(0-t) (male, Sprague Dawley, rat, plasma, iv, 10 mg/kg, intravenous 10 mg/kg, male rats, individual animals, read-out: AUC0-t): 3870 ng·h/mL
- clearance (male, Sprague Dawley, rat, plasma, iv, 10 mg/kg, intravenous 10 mg/kg, male rats, individual animals, read-out: CL (converted)): 40.9 mL/min/kg
- MRT (male, Sprague Dawley, rat, plasma, iv, 10 mg/kg, intravenous 10 mg/kg, male rats, individual animals, read-out: MRT): 7.31 h
- Vd (male, Sprague Dawley, rat, plasma, iv, 10 mg/kg, intravenous 10 mg/kg, male rats, individual animals, read-out: Vss): 17.9 L/kg
- half-life (male, Sprague Dawley, rat, plasma, iv, 10 mg/kg, intravenous 10 mg/kg, male rats, individual animals, read-out: t1/2 (converted)): 7 h
- concentration at 0.05 h (male, Sprague Dawley, rat, plasma, iv, 10 mg/kg, single intravenous 10 mg/kg, male rats, 0.05 h (3 min), mean of 3, read-out: Mean Concentration in plasma): 2250 ng/mL
- concentration at 0.1 h [2]: 941 ng/mL
- concentration at 0.1 h [3]: 1120 ng/mL
- concentration at 0.25 h [2]: 589 ng/mL
- concentration at 0.25 h [3]: 705 ng/mL
- concentration at 0.75 h [2]: 441 ng/mL
- concentration at 0.75 h [3]: 392 ng/mL
- concentration at 1.5 h [2]: 347 ng/mL
- concentration at 1.5 h [3]: 308 ng/mL
- concentration at 2.5 h [2]: 239 ng/mL
- concentration at 2.5 h [3]: 233 ng/mL
- concentration at 4 h [2]: 317 ng/mL
- concentration at 4 h [3]: 254 ng/mL
- concentration at 6 h [2]: 140 ng/mL
- concentration at 6 h [3]: 160 ng/mL
- concentration at 8 h (male, Sprague Dawley, rat, plasma, iv, 10 mg/kg, single intravenous 10 mg/kg, male rats, 8 h, mean, read-out: Mean Concentration in plasma): 97 ng/mL
- concentration at 24 h (male, Sprague Dawley, rat, plasma, iv, 10 mg/kg, single intravenous 10 mg/kg, male rats, 24 h, mean, read-out: Mean Concentration in plasma): 20.2 ng/mL
- AUC(0-t) (male, Sprague Dawley, rat, plasma, po, 10 mg/kg, oral 10 mg/kg, male rats, Arithmetic Mean, read-out: AUC0-t): 1350 ng·h/mL
SMILES: N=C(N)NN=CC=Cc1cccn1-c1ccc(Cl)cc1 [Compound 1, [1-(4-chlorophenyl)-1H-pyrrol-2-yl-allylideneamino]guanidinium acetate]
- volume of distribution compared with total body water (in words) (intravenous 10 mg/kg, rats, total body water 668 mL/kg, acetate, 10 mg/kg): exceeded the total body water; also recorded: markedly greater than that of the total body water
